Measurements from patent US20120157439A1, “RAF INHIBITOR COMPOUNDS AND METHODS OF USE THEREOF” (GENENTECH, INC., priority 2009, published 2012).
Where two headings read alike, the source gives them in different places.

Target: T1, V600E full-length B-Raf (Homo sapiens, UniProt P15056, V600E)
T1 construct: 1 μM FSBA-MEK and 20 nM V600E full-length B-Raf; made in house; host or cells: sf9 insect cells (baculovirus)
Experiment: B-Raf IC50 Assay (B-RAF V600E inhibition assay, Example A)
Assay type: biochemical
Description: Determining the activity of Raf in the sample is possible by a number of direct and indirect detection methods (US 2004/0082014). Activity of human recombinant B-Raf protein may be assessed in vitro by assay of the incorporation of radio labeled phosphate to recombinant MAP kinase (MEK), a known physiologic substrate of B-Raf, according to US 2004/0127496 and WO 03/022840. The activity/inhibition of V600E full-length B-Raf was estimated by measuring the incorporation of radio labeled phosphate from [γ-33P]ATP into FSBA-modified wild-type MEK (see Example A).
Activity of human recombinant B-Raf protein may be assessed in vitro by assay of the incorporation of radio labeled phosphate to recombinant MAP kinase (MEK), a known physiologic substrate of B-Raf, according to U.S. Patent Appl. Publication No. 2004/0127496 and WO 03/022840. Catalytically active human recombinant B-Raf protein is obtained by purification from sf9 insect cells infected with a human B-Raf recombinant baculovirus expression vector.
The activity/inhibition of V600E full-length B-Raf was estimated by measuring the incorporation of radio labeled phosphate from [γ-33P]ATP into FSBA-modified wild-type MEK. The […] assay mixtures contained 25 mM Na Pipes, pH 7.2, 100 mM KCl, 10 mM MgCl2, 5 mM β-glycerophosphate, 100 μM Na Vanadate, 4 μM ATP, 500 nCi [γ-33P]ATP, 1 μM FSBA-MEK and 20 nM V600E full-length B-Raf. Incubations were carried out at 22° C. in a Costar 3365 plate (Corning). Prior to the assay, the B-Raf and FSBA-MEK were preincubated together in assay buffer at 1.5× (20 μL of 30 nM and 1.5 μM, respectively) for 15 minutes, and the assay was initiated by the addition of 10 μL of […]. Following the 60-minute incubation, the assay mixtures were quenched by the addition of 100 μL of 25% TCA, the plate was mixed on a rotary shaker for 1 minute, and the product was captured on a Perkin-Elmer GF/B filter plate using a Tomtec Mach III Harvester. After sealing the bottom of the plate, 35 μL of Bio-Safe II (Research Products International) scintillation cocktail were added to each well and the plate was top-sealed and counted in a Topcount NXT (Packard).

[1] = B-Raf V600E assay of Example A: less than 100 nM, read-out: IC50
[2] = B-Raf V600E assay of Example A: less than about 1 μM, read-out: IC50
[3] = incorporation of radio labeled phosphate from [γ-33P]ATP into FSBA-modified wild-type MEK, 4 μM ATP, 20 nM V600E full-length B-Raf, 60-minute incubation, 22° C., read-out: BRAF V600E IC50

T1 sequence (P15056 whole entry V600E): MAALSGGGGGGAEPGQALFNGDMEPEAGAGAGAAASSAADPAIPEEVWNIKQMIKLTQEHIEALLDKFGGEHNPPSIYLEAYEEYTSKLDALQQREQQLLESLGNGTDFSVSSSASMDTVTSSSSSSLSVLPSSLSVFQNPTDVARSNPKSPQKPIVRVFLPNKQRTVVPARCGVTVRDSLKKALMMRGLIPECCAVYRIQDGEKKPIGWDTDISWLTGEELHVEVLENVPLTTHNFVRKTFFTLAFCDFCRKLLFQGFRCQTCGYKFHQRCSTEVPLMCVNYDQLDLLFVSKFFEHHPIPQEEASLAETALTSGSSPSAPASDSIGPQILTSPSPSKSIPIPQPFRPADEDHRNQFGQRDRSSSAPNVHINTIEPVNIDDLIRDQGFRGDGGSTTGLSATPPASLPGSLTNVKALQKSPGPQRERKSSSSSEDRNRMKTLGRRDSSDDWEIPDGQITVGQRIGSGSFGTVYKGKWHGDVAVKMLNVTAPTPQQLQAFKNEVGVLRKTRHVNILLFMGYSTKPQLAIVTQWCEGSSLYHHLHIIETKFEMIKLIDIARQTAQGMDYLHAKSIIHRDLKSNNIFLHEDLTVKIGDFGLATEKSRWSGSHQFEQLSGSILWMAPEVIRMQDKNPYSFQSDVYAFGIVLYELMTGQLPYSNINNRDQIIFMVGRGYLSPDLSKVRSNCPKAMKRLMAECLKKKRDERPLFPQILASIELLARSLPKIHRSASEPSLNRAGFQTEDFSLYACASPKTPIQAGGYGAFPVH

| IC50 [1] | IC50 [2] | IC50 [3] | Structure (SMILES) |
| --- | --- | --- | --- |
| < 100 nM | < 1000 nM | 0.11 nM | Nc1ncnc2c(C(=O)Nc3c(Cl)ccc(NS(=O)(=O)CCCF)c3Cl)csc12 [Example 24, 4-Amino-thieno[3,2-d] pyrimidine-7-carboxylic acid [2,6-dichloro-3-(3-fluoro-propane-1-sulfonylamino)-phenyl]-amide] |
| < 100 nM | < 1000 nM | 47.1 nM | CCCS(=O)(=O)Nc1cc(Cl)cc(NC(=O)c2csc3c(N)ncnc23)c1F [Example 21, 4-Amino-thieno[3,2-d] pyrimidine-7-carboxylic acid [5-chloro-2-fluoro-3-(propane-1-sulfonyl-amino)-phenyl]-amide] |
| < 100 nM | < 1000 nM | 1.2 nM | CCCS(=O)(=O)Nc1cc(F)c(F)c(NC(=O)c2csc3c(NC4CC4)ncnc23)c1F [Example 86, 4-Cyclopropyl-amino-thieno [3,2-d] pyrimidine-7-carboxylic acid [2,3,6-trifluoro-5-(propane-1-sulfonyl-amino)-phenyl]-amide] |
| < 100 nM | < 1000 nM | 0.2 nM | CCCS(=O)(=O)Nc1ccc(Cl)c(NC(=O)c2csc3c(NN4CCOCC4)ncnc23)c1Cl [Example 67, 4-(Morpholin-4-ylamino)-thieno[3,2-d] pyrimidine-7-carboxylic acid [2,6-dichloro-3-(propane-1-sulfonyl-amino)-phenyl]-amide] |
| < 100 nM | < 1000 nM | 14.4 nM | CCCS(=O)(=O)Nc1ccc(Cl)c(NC(=O)c2csc3c(NC4CCOC4)ncnc23)c1Cl (centres unmarked) [Example 71, 4-(Tetrahydro-furan-3-ylamino)-thieno[3,2-d] pyrimidine-7-carboxylic acid [2,6-dichloro-3-(propane-1-sulfonyl-amino)phenyl]-amid] |
| – | < 1000 nM | 125 nM | CCCS(=O)(=O)Nc1ccc(F)c(NC(=O)c2csc3c(N)ncnc23)c1 [Example 27, 4-Amino-thieno[3,2-d]pyrimidine-7-carboxylic acid[2-fluoro-5-(propane-1-sulfonylamino)-phenyl]-amide] |
| < 100 nM | < 1000 nM | 0.6 nM | CCCS(=O)(=O)Nc1ccc(Cl)c(NC(=O)c2csc3c(NCC)ncnc23)c1Cl [Example 76, 4-Ethylamino-thieno[3,2-d] pyrimidine-7-carboxylic acid [2,6-dichloro-3-(propane-1-sulfonyl-amino)-phenyl]-amide] |
| < 100 nM | < 1000 nM | 77.5 nM | CCCS(=O)(=O)Nc1ccc(Cl)c(NC(=O)c2csc3c(NC4CCOCC4)ncnc23)c1Cl [Example 77, 4-(Tetrahydro-pyran-4-ylamino)-thieno[3,2-d] pyrimidine-7-carboxylic acid [2,6-dichloro-3-(propane-1-sulfonyl-amino)-phenyl]-amid] |
| < 100 nM | < 1000 nM | 3.4 nM | CCCS(=O)(=O)Nc1ccc(Cl)c(NC(=O)c2csc3c(NC(C)C)ncnc23)c1Cl [Example 70, 4-Isopropyl-amino-thieno [3,2-d] pyrimidine-7-carboxylic acid [2 6-dichloro-3-(propane-1-sulfonyl-amino)-phenyl]-amide] |
| < 100 nM | < 1000 nM | 1.2 nM | CCCS(=O)(=O)Nc1ccc(F)c(NC(=O)c2nsc3c(N)ncnc23)c1F [Example 30, 7-Amino-isothiazolo[4,5-d]pyrimidine-3-carboxylic acid [2,6-difluoro-3-(propane-1-sulfonylamino)-phenyl]-amide] |
| < 100 nM | < 1000 nM | 0.2 nM | CCCS(=O)(=O)Nc1ccc(Cl)c(NC(=O)c2csc3c(NC4CC4)ncnc23)c1Cl [Example 66, 4-Cyclopropylamino-thieno[3,2-d]pyrimidine-7-carboxylic acid [2,6-dichloro-3-(propane-1-sulfonylamino)-phenyl]-amide] |
